“And” between values parts separate entries of the source, which are not always exact repeats. Equal entries are not always repeated. Non-standard residues stand in square brackets, D forms with d. Residues, ends and D or L forms follow the SMILES beside them. No end group written: not given here. Dmt = Cc1cc(O)cc(C)c1C[C@H](N)C(=O)O
Columns and labels:
[1] = system: retinal ganglion cells (RGC); test: RGC survival in sonication-induced TON (SI-TON) model, Example 2; assay type: in vivo, mice; details: two weeks following injury, early use, peptide 2 mg/kg SQ for 7 days
From the text: SI-TON is induced by a microtip probe sonifier placed on the supraorbital ridge directly above the entrance of the optic nerve into the bony canal, as described in Tao, W. et al., Scientific Reports (2017) 7: 11779 (incorporated herein by reference). An ultrasonic pulse is then delivered to the optic nerve. After injury, the number of RGCs in the retina as well as visual function measured by PERG steadily decrease over a two-week period. […] The SI-TON model is capable of delivering a non-contact concussive injury to the optic nerve and induce TON in mice.
Two models for TON were utilized in this example: a novel sonication-induced TON (SI-TON) that closely recapitulates the clinical manifestations of indirect TON, and optic nerve crush-induced TON (ONC-TON) which reflects a more severe form of TON often resulting in axotomized nerve fibers and ruptured nervous vasculature. […]
(§1) A baseline recording of visual function by pattern electroretinogram (PERG) and imaging of the optic disc was performed prior to inducing SI-TON or ONC-TON. […] Euthanized animals were evaluated for RGC dropout by flat mount. […]
To test if a combinatorial strategy results in improved visual outcomes, a therapeutic agent, such as a TNF-alpha inhibitor (e.g., etanercept), D-Arg-2′6′-Dmt-Lys-Phe-NH2, or a combination of these pharmaceutical agents was assessed. […] Euthanized animals were evaluated for RGC dropout by flat mount. […]

[2] = system: retinal ganglion cells (RGC); test: RGC survival in optic nerve crush-induced TON (ONC-TON) model, Example 2; assay type: in vivo, rat; details: two weeks following injury, early use, peptide 2 mg/kg SQ for 7 days
From the text: ONC-TON is induced by exposing the optic nerve of an adult rat and creating a small opening in the meninges of the nerve, as described in Solomon, A. et al., J. of Neurosci. Methods (1996) 70: 21-25, (incorporated herein by reference). The opening is created about 2-3 mm behind the eye globe. A glass dissector is introduced through the opening and is used to cut all the axons through the whole width of the nerve. Complete […] of the optic nerve axons is achieved, while retaining the continuity of the meninges and avoiding damage to the nerve's vascular supply. Transection can be confirmed by transillumination showing a complete gap in the continuity of the nerve axons, and by both morphological and electrophysiological criteria. The opening created in the ‘meningeal tube’ can be used to inject substances that may be of benefit in recovery, rescue and/or regeneration of the injured axons. […]
as §1
To test if a combinatorial strategy results in improved visual outcomes, a therapeutic agent, such as a TNF-alpha inhibitor (e.g., etanercept), D-Arg-2′6′-Dmt-Lys-Phe-NH2, or a combination of these pharmaceutical agents was assessed. […]

[3] = system: Retinal Nerve Fiber Layer (RNFL) and Inner Plexiform Layer (IPL); test: Sequential administration study, OCT thickness of RNFL and IPL after US-TON (SI-TON), Example 4; assay type: in vivo, mice; details: four weeks after treatments
Procedure: (§2) The sequential administration study was conducted as depicted in FIG. 4. A baseline visual function of retinal ganglion cells (RGCs) was obtained using pattern electroretinography (PERG) to record the electrical activity of RGCs, Optical Coherence Tomography (OCT) to evaluate the thickness of the Retinal Nerve Fiber Layer (RNFL), and Heidelberg Retina Topography (HRT) to evaluate subtle changes in the optic nerve caused by trauma. At day zero, US-TON (SI-TON) was induced by a microtip probe sonifier placed on the supraorbital ridge directly above the entrance of the optic nerve into the bony canal, as described in Example 2.
(§3) On the first day, six mice were administered either a bolus subcutaneous injection of 3 mg/kg ([…]) Etanercept (Enbrel™, Groups 1 and 2), 10 mg/kg (300 μg per 30 g mouse) D-Arg-2′6′-Dmt-Lys-Phe-NH2(MTP-131, Groups 3 and 4), or PBS (Groups 5 and 6), followed by daily injections of the drug formulation for a period of 3 days. On the sixth day, Groups 1 and 2 were administered a bolus subcutaneous injection of 10 mg/kg (300 μg per 30 g mouse) D-Arg-2′6′-Dmt-Lys-Phe-NH2; Groups 3 and 4 were administered a bolus subcutaneous injection of 3 mg/kg ([…]) Etanercept; and Groups 5 and 6 received PBS, followed by daily injections of the drug formulation for three days. […]

[4] = system: retinal ganglion cells (RGCs); test: Sequential administration study, PERG after US-TON (SI-TON), Example 4; assay type: in vivo, mice; details: 5 mg/kg 4-AP added to any formulation from two weeks post-injury, two and four weeks post treatment
Procedure: as §2, §3

[5] = system: subjects suspected of having or diagnosed as having TON; test: Treatment of subjects with TON, Example 1 (predicted); assay type: in vivo; details: for effect in combination with one or more additional therapeutic agents: compared with peptide or additional agent alone, expected; for severity of symptoms associated with TON: daily 1 mg/kg body weight, predicted
Procedure: Subjects suspected of having or diagnosed as having TON receive daily administrations of 1 mg/kg body weight of aromatic-cationic peptide, such as 2′6′-Dmt-D-Arg-Phe-Lys-NH2, Phe-D-Arg-Phe-Lys-NH2, or D-Arg-2′6′-Dmt-Lys-Phe-NH2, or a pharmaceutically acceptable salt thereof (such as an mono, bis, or tri-acetate salt, a tartrate salt, a fumarate salt, a mono, bis, or tri-HCl salt, a mono, bis, or tri-tosylate salt, or a mono, bis, or tri-trifluoroacetate salt) alone or in combination with one or more additional therapeutic agents for the treatment or prevention of TON. Peptides and/or additional therapeutic agents are administered orally, topically, systemically, intravenously, subcutaneously, intravitreally, intraperitoneally, or intramuscularly according to methods known in the art. Subjects will be evaluated weekly for the presence and/or severity of signs and symptoms associated with TON including, but not limited to, e.g., vision loss, blurred vision, RGC damage, scotoma, decreased color sensation, uveitis, optic neuritis, eye pain, optic nerve avulsion, optic nerve transection, optic nerve sheath hemorrhage, orbital hemorrhage, choroidal rupture, and commotio retinae. Treatments are maintained until such a time as one or more signs or symptoms of TON are ameliorated or eliminated.

[6] = system: several mammalian cell types; details: energy-independent manner; cited from earlier work
[7] = system: retinal ganglion cells (RGCs); test: Safety and efficacy of acute intravitreal administration, PERG before and after SI-TON, Example 5; assay type: in vivo, C57BL/6 J mice
Procedure: To determine the safety of acute intravitreal administration of aromatic-cationic peptides in vivo, SI-TON was induced in 3-month-old C57BL/6 J mice with a Branson Digital Sonifier 450 (Branson) by a 3 mm microtip probe (Branson) in an acoustic soundproof enclosure chamber, as described in Example 2. Fifteen minutes following the induction of TON, a group of ten mice were administered 1.3 μL of 100 nM D-Arg-2′6′-Dmt-Lys-Phe-NH2 (MTP-131) intravitreally in the left eye (OS, treated). A different subset of mice was administered control PBS solution intravitreally in the left eye (OS, treated) followed by subcutaneous injection with 5 mg/kg D-Arg-2′6′-Dmt-Lys-Phe-NH2 fifteen minutes post-injury. A baseline recording of the mice visual function was recorded using electrophysiological recording of RGCs through PERG prior to SI-TON induction and the functional visual outcome of the mice was tested again 4 weeks post-injury.

etanercept
percent RGC survival [1]: 97.08% and 97.08±2.21%
percent RGC survival [2]: 48.94% and 48.94±1.94%

Nc1ccncc1 [4-AP, 4-aminopyridine]
RNFL and IPL thickness by OCT [3]: did not significantly improve
RGC electrical activity measured by PERG [4]: significantly increased RGC electrical activity

F[dR]FK-NH2
effect in combination with one or more additional therapeutic agents [5]: synergistic effects
severity of symptoms associated with TON [5]: reduced severity or elimination of one or more symptoms associated with TON

2′6′-Dmt-D-Arg-Phe-Lys-NH2
effect in combination with one or more additional therapeutic agents [5]: synergistic effects
severity of symptoms associated with TON [5]: reduced severity or elimination of one or more symptoms associated with TON
penetration of the plasma membrane [6]: readily penetrates the plasma membrane

Cc1cc(O)cc(C)c1C[C@H](NC(=O)[C@H](N)CCCNC(=N)N)C(=O)N[C@@H](CCCCN)C(=O)N[C@@H](Cc1ccccc1)C(N)=O [D-Arg-2′6′-Dmt-Lys-Phe-NH2] (H-[dR][Dmt]KF-NH2)
safety of direct application to the eye ([7]; acute intravitreal injection, 1.3 μL of 100 nM): did not show evidence of toxicity
baseline electrophysiological recording of RGCs (PERG), treated vs control ([7]; uninjured baseline, left eye): substantially similar

Source: patent US20210330735A1, “COMPOSITIONS AND METHODS FOR THE TREATMENT OF TRAUMATIC OPTIC NEUROPATHY” (Stealth BioTherapeutics Corp, priority 2018, published 2021)
